According to US8927717B1, “Thiochromeno[2,3-c]quinolin-12-one derivatives, preparation method and application thereof” (National Defense Medical Center, priority 2014, dated 2015):

Experiments:
T-47D = type: cell-based; settings: Breast cancer; 10^−5 molar; 48 hours; SRB
UACC-257 = type: cell-based; settings: Melanoma; 10^−5 molar; 48 hours; SRB
MALME-3M = type: cell-based; settings: Melanoma; 10^−5 molar; 48 hours; SRB
NCI-H23 = type: cell-based; settings: Non-small cell lung cancer; 10^−5 molar; 48 hours; SRB
RPMI-8226 = type: cell-based; settings: Leukemia; 10^−5 molar; 48 hours; SRB
DU-145 = type: cell-based; settings: Prostate cancer; 10^−5 molar; 48 hours; SRB
MDA-MB-231/ATCC = type: cell-based; settings: Breast cancer; 10^−5 molar; 48 hours; SRB
HCT-116 = type: cell-based; settings: Colon cancer; 10^−5 molar; 48 hours; SRB
HCC-2998 = type: cell-based; settings: Colon cancer; 10^−5 molar; 48 hours; SRB
U251 = type: cell-based; settings: CNS cancer; 10^−5 molar; 48 hours; SRB
CAKI-1 = type: cell-based; settings: Renal cancer; 10^−5 molar; 48 hours; SRB
OVCAR-3 = type: cell-based; settings: Ovarian cancer; 10^−5 molar; 48 hours; SRB
ACHN = type: cell-based; settings: Renal cancer; 10^−5 molar; 48 hours; SRB
SK-MEL-28 = type: cell-based; settings: Melanoma; 10^−5 molar; 48 hours; SRB
MCF7 = type: cell-based; settings: Breast cancer; 10^−5 molar; 48 hours; SRB
A498 = type: cell-based; settings: Renal cancer; 10^−5 molar; 48 hours; SRB
CCRF-CEM = type: cell-based; settings: Leukemia; 10^−5 molar; 48 hours; SRB
SF-268 = type: cell-based; settings: CNS cancer; 10^−5 molar; 48 hours; SRB
OVCAR-4 = type: cell-based; settings: Ovarian cancer; 10^−5 molar; 48 hours; SRB
HL-60(TB) = type: cell-based; settings: Leukemia; 10^−5 molar; 48 hours; SRB
60 cancer cell lines = assay: NCI 60-cell screen, SRB, whole panel (mean, delta, range); type: cell-based; settings: 10^−5 molar, 48 hours, SRB
TK-10 = type: cell-based; settings: Renal cancer; 10^−5 molar; 48 hours; SRB
HS 578T = type: cell-based; settings: Breast cancer; 10^−5 molar; 48 hours; SRB
SR = type: cell-based; settings: Leukemia; 10^−5 molar; 48 hours; SRB
SK-MEL-5 = type: cell-based; settings: Melanoma; 10^−5 molar; 48 hours; SRB
SF-295 = type: cell-based; settings: CNS cancer; 10^−5 molar; 48 hours; SRB
UO-31 = type: cell-based; settings: Renal cancer; 10^−5 molar; 48 hours; SRB
HT29 = type: cell-based; settings: Colon cancer; 10^−5 molar; 48 hours; SRB
SK-OV-3 = type: cell-based; settings: Ovarian cancer; 10^−5 molar; 48 hours; SRB
SF-539 = type: cell-based; settings: CNS cancer; 10^−5 molar; 48 hours; SRB
NCI-H226 = type: cell-based; settings: Non-small cell lung cancer; 10^−5 molar; 48 hours; SRB
SW-620 = type: cell-based; settings: Colon cancer; 10^−5 molar; 48 hours; SRB
SNB-19 = type: cell-based; settings: CNS cancer; 10^−5 molar; 48 hours; SRB
K-562 = type: cell-based; settings: Leukemia; 10^−5 molar; 48 hours; SRB
NCI-H522 = type: cell-based; settings: Non-small cell lung cancer; 10^−5 molar; 48 hours; SRB
HCT-15 = type: cell-based; settings: Colon cancer; 10^−5 molar; 48 hours; SRB
SNB-75 = type: cell-based; settings: CNS cancer; 10^−5 molar; 48 hours; SRB
NCI/ADR-RES = type: cell-based; settings: Ovarian cancer; 10^−5 molar; 48 hours; SRB
IGROV1 = type: cell-based; settings: Ovarian cancer; 10^−5 molar; 48 hours; SRB
LOX IMVI = type: cell-based; settings: Melanoma; 10^−5 molar; 48 hours; SRB
NCI-H460 = type: cell-based; settings: Non-small cell lung cancer; 10^−5 molar; 48 hours; SRB
HOP-62 = type: cell-based; settings: Non-small cell lung cancer; 10^−5 molar; 48 hours; SRB
A549/ATCC = type: cell-based; settings: Non-small cell lung cancer; 10^−5 molar; 48 hours; SRB
MDA-MB-435 = type: cell-based; settings: Melanoma; 10^−5 molar; 48 hours; SRB
MDA-MB-486 = type: cell-based; settings: Breast cancer; 10^−5 molar; 48 hours; SRB
RXF 393 = type: cell-based; settings: Renal cancer; 10^−5 molar; 48 hours; SRB
OVCAR-8 = type: cell-based; settings: Ovarian cancer; 10^−5 molar; 48 hours; SRB
SN12C = type: cell-based; settings: Renal cancer; 10^−5 molar; 48 hours; SRB
M14 = type: cell-based; settings: Melanoma; 10^−5 molar; 48 hours; SRB
PC-3 = type: cell-based; settings: Prostate cancer; 10^−5 molar; 48 hours; SRB
KM12 = assay: cells; type: cell-based; settings: Colon cancer; 10^−5 molar; 48 hours; SRB
COLO 205 = type: cell-based; settings: Colon cancer; 10^−5 molar; 48 hours; SRB
BT-549 = type: cell-based; settings: Breast cancer; 10^−5 molar; 48 hours; SRB
OVCAR-5 = type: cell-based; settings: Ovarian cancer; 10^−5 molar; 48 hours; SRB
786-0 = type: cell-based; settings: Renal cancer; 10^−5 molar; 48 hours; SRB
UACC-62 = type: cell-based; settings: Melanoma; 10^−5 molar; 48 hours; SRB
MOLT-4 = type: cell-based; settings: Leukemia; 10^−5 molar; 48 hours; SRB

SMILES: CCC(CO)Nc1nc2ccccc2c2c(=O)c3cc(Cl)ccc3sc12 (stereo not drawn) [Compound N12, 10-Chloro-6-((1-hydroxybutan-2-yl)amino)-12H-thiochromeno[2,3-c]quinolin-12-one]
- Growth percent T-47D (T-47D): 46.94%
- Growth percent UACC-257 (UACC-257): 95.71%
- Growth percent MALME-3M (MALME-3M): 58.66%
- Growth percent NCI-H23 (NCI-H23): 81.25%
- Growth percent RPMI-8226 (RPMI-8226): 73.50%
- Growth percent DU-145 (DU-145): 87.04%
- Growth percent MDA-MB-231/ATCC (MDA-MB-231/ATCC): 58.29%
- Growth percent HCT-116 (HCT-116): 73.42%
- Growth percent HCC-2998 (HCC-2998): 99.61%
- Growth percent U251 (U251): 74.49%
- Growth percent CAKI-1 (CAKI-1): 59.29%
- melting point: 203 to 204 °C
- Growth percent OVCAR-3 (OVCAR-3): 96.34%
- Growth percent ACHN (ACHN): 69.12%
- Growth percent SK-MEL-28 (SK-MEL-28): 82.86%
- Growth percent MCF7 (Table 2: MCF) (MCF7): 40.92%
- Growth percent A498 (A498): 74.62%
- Growth percent CCRF-CEM (CCRF-CEM): 70.00%
- Growth percent SF-268 (SF-268): 76.71%
- Growth percent OVCAR-4 (OVCAR-4): 83.23%
- Growth percent HL-60(TB) (HL-60(TB)): 96.29%
- Growth percent, Delta (60 cancer cell lines; delta over the cell panel): 42.51%
- Growth percent, Mean (60 cancer cell lines; mean over the cell panel): 73.52%
- Growth percent, Range (60 cancer cell lines; range over the cell panel): 68.60%
- Growth percent TK-10 (TK-10): 77.45%
- Growth percent HS 578T (HS 578T): 52.66%
- Growth percent SR (SR): 62.38%
- Growth percent SK-MEL-5 (SK-MEL-5): 87.19%
- Growth percent SF-295 (SF-295): 89.58%
- Growth percent UO-31 (UO-31): 51.01%
- Growth percent HT29 (HT29): 78.24%
- Growth percent SK-OV-3 (SK-OV-3): 58.93%
- Growth percent SF-539 (SF-539): 83.86%
- Growth percent NCI-H226 (NCI-H226): 77.56%
- Growth percent SW-620 (SW-620): 84.32%
- Growth percent SNB-19 (SNB-19): 93.87%
- Growth percent K-562 (K-562): 46.86%
- Growth percent NCI-H522 (NCI-H522): 64.07%
- Growth percent HCT-15 (HCT-15): 77.58%
- Growth percent SNB-75 (SNB-75): 31.01%
- Growth percent NCI/ADR-RES (NCI/ADR-RES): 77.02%
- Growth percent IGROV1 (IGROV1): 66.54%
- Growth percent LOX IMVI (LOX IMVI): 79.25%
- Growth percent NCI-H460 (NCI-H460): 83.78%
- Growth percent HOP-62 (HOP-62): 55.91%
- Growth percent A549/ATCC (A549/ATCC): 69.86%
- Growth percent MDA-MB-435 (MDA-MB-435): 92.11%
- Growth percent MDA-MB-486 (MDA-MB-486): 80.85%
- Growth percent RXF 393 (RXF 393): 71.61%
- Growth percent OVCAR-8 (OVCAR-8): 68.74%
- Growth percent SN12C (SN12C): 81.98%
- Growth percent M14 (M14): 85.38%
- Growth percent PC-3 (PC-3): 58.35%
- Growth percent KM12 (KM12): 82.37%
- Growth percent COLO 205 (COLO 205): 68.37%
- Growth percent BT-549 (BT-549): 85.96%
- Growth percent OVCAR-5 (OVCAR-5): 88.01%
- Growth percent 786-0 (786-0): 82.86%
- Growth percent UACC-62 (UACC-62): 76.17%
- Growth percent MOLT-4 (MOLT-4): 61.79%
